The structures appear in SMILES notation.

This assay concerns the target T1, GCNF LBD (Homo sapiens, UniProt Q15406).
T1 construct: Human GCNF (NR6A1) LBD (residues 248-480); made in house; host or cells: E. coli BL(21) DE3
T1 sequence (Q15406 248-480): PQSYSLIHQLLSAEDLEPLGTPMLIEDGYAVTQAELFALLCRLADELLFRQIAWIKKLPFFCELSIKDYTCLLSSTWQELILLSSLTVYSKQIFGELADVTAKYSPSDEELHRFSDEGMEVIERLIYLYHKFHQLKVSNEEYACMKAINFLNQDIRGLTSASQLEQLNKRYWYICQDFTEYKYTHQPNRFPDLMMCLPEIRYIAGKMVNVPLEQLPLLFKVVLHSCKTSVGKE
The assay can be described thus: Differential scanning fluorimetry (DSF) of GCNF LBD. Conditions: additional ligand screening. Format: binding. Here is the method: DSF Assay. GCNF LBD (5 μM) were mixed with 1× Sypro orange (Invitrogen) in DSF buffer (50 mM HEPES, 50 mM KCl, 5 mM TCEP, 0.5 mM EDTA, pH 7.5). Test compounds was added at 1:1 molar equivalence as protein or replaced with DMSO control. Ten microliters (10 μL)×5 replicates for each sample were plated on 384-well PCR microplate. No protein control and no ligand references were also run simultaneously in 5 replicates on the same plate. A total of 450 compounds (Life Chemicals) previously selected from a nuclear-receptor-biased library targeting REV-ERB were analyzed. Thermal stability was assessed on a Quantstudio 6 instrument (Biosystems) by ramping the temperature from 25° C. to 95° C. at 0.05° C./s and protein melt shifts were subsequently quantified by Boltzmann-derived melting temperature (Tm) using the Protein Thermal Shift (ThermoFisher) software. Positive hits were identified when a thermal shift (ΔTm) of at least 2° C. was observed.
For the DSF ligand titration assay, ligands 30, 34 and 80 were titrated against 5 μM GCNF LBD with a ligand concentration series of 30, 20, 13, 9, 6, 4, 2.6, 1.7 and 0 μM from a 20 mM DMSO stock solution. DSF assay and analysis was then performed as described above. All DSF data were reported as mean±SEM.
A general note: In DSF a fluorescence change marks the thermal transition of the protein.
On to `CCOC(=O)C(C)Oc1cccc2c(=O)n(CC(=O)Nc3c(C)cc(C)cc3C)ccc12` (stereo not drawn) [R5], for which the “change in Tm of GCNF” value was 1.6 °C.

Consider `COC(=O)COc1cccc2c(=O)n(CC(=O)NCCc3ccc(OC)c(OC)c3)ccc12` [R9], for which the “change in Tm of GCNF” value is 0.8 °C. In the case of `CCCCCn1c(SCC(=O)CC(=O)OCC)nc2cc(C(=O)NCc3ccco3)ccc2c1=O` [R12], the “change in Tm of GCNF” value stood at 0.8 °C. The result for `O=C1CCCC2=C1C(c1ccc(O)cc1)C1=C(CCCC1=O)O2` [U1] reads 0.9 °C; that for `COc1ccc(NC(=O)N2CCC3(CC2)N=C(SCc2ccccc2)C(c2ccccc2)=N3)cc1OC` [U2], 2.3 °C; that for `CC(=O)Nc1ccc(NCC(O)Cn2c3ccccc3n3c(=O)cc(C)c(C#N)c23)cc1` (stereo not drawn) [U7], 1.0 °C.

(Values after patent publication US12478628B2, “Germ cell nuclear factor ligands and methods of use thereof” (Saint Louis University, priority 2020, dated 2025).)
